Experimental data as given in PMC10670708, “A New Synthetic Curcuminoid Displays Antitumor Activities in Metastasized Melanoma” (Cells, 2023).
Several values for one entry are separate records, joined by “and”; a condition that tells them apart may be missing. Equal values may be shown once. Entries after “also recorded” stand apart in the source; their conditions may differ.

Tests used:
[1] = test system: B16F10 murine melanoma cells; assay: Cytotoxicity assay (resazurin), B16F10; type: cell-based; conditions: for IC50: Mus musculus, B16-F10, 48 h, resazurin
Protocol: (§1) 3T3 murine fibroblasts (ATCC # CRL-1658), B16F10 murine melanoma cells (ATCC # CRL-6475) and RAW 264.7 murine macrophages (ATCC # TIB-71) were cultured in Dulbecco’s modified eagle’s high-glucose medium (Sigma Aldrich, Darmstadt, Germany) supplemented with 10% fetal bovine serum (FBS), 1% streptomycin–penicillin (Gibco, Darmstadt, Germany) and 1% L-glutamine (Gibco, Germany). AML12 murine hepatocytes (ATCC # CRL-2254) were cultivated in Dulbecco’s modified eagle’s F-12 Ham media supplemented as described above plus 10 µg/mL insulin, 5.5 µg/mL transferrin, 5 ng/mL selenium (all from Thermo Fisher Scientific, Braunschweig, Germany) and 40 ng/mL dexamethasone (Sigma Aldrich). All cells were maintained in a humidified incubator at 37 °C under 5% CO2. Cells were passaged when they reached semi-confluency. For detachment, cells were thoroughly rinsed with Dulbecco’s phosphate-buffered saline (PBS) without calcium and magnesium (Sigma Aldrich) and enzymatically treated using TrypLE™ Express (1×) (Gibco, Germany). FBS-containing medium was added to stop enzymatic activity.
(§2) A total of 1000 cells were seeded per well in 100 µL medium (for details, see above) using 96-well plates (Greiner Bio-On, Frickenhausen, Germany). After 24 h, curcumin, garcinol (both from Sigma Aldrich), MePip-SF5 and isogarcinol (synthesized as described previously) were added to the wells at concentrations ranging from 0.5 to 64 µM (6 wells per concentration step) and incubated at […] for 48 h. For the preparation of the compounds, drugs were dissolved in DMSO at a concentration of 40 mM for stock solutions and freshly diluted with PBS to a working stock of 4 mM on the day of the experiment.
(§3) After the incubation, resazurin (Sigma Aldrich) was dissolved in fully supplemented media and added to a final concentration of 25 µg/mL per well. After incubation for 3 h, the absorbance of resorufin (7-hydroxy-3H-phenoxazin-3-one), the enzymatic product of resazurin, in the wells was measured on an Infinite M200Pro spectrofluorometer (TECAN, Männedorf, Switzerland) at an excitation of 570 nm. Based on the determined dose–response curves, IC50 concentrations were calculated by Prism 10 (GraphPad Software Version 10.1.0, La Jolla, CA, USA) using nonlinear regression analysis after conversion of concentrations to logarithmic scale.

3T3 murine fibroblasts = assay: Cytotoxicity assay (resazurin), 3T3; type: cell-based; conditions: 3T3 fibroblasts; for IC50: Mus musculus, Fibroblast, 48 h, resazurin
Protocol: as §1, §2, §3

AML12 murine hepatocytes = assay: Cytotoxicity assay (resazurin), AML12; type: cell-based; conditions: Mus musculus, 48 h
Protocol: as §1, §2, §3

[2] = test system: RAW 264.7 murine macrophages; assay: Cytotoxicity assay (resazurin), RAW 264.7; type: cell-based; conditions: Mus musculus, RAW264.7, 48 h
Protocol: as §1, §2, §3

[3] = test system: M2-polarized bone-marrow-derived macrophages; assay: Phenotype modulation of M2-polarized BMDM (RT-qPCR); type: cell-based, mice (C57BL/6); conditions: M2-polarized primary macrophages; for Ccl3 expression: half of RAW IC50
Protocol: Bone marrow was extracted from 8-weeks-old C57BL/6 mice (Charles River, Erkrat, Germany) and matured into primary macrophages in the presence of macrophage colony-stimulating factor (M-CSF). Briefly, mice were sacrificed by cervical dislocation, and the femurs and tibias were isolated under sterile conditions and rinsed with cold PBS supplemented with 2% heat-inactivated FBS and 1% penicillin/streptomycin using a 21G needle and a 10 mL syringe (Braun, Kronberg, Germany). Cell suspensions were passed through a 70 µm cell strainer (Milteny, Bergisch Gladbach, Germany). The remaining red blood cells were lysed with red cell lysis buffer (eBioscience, San Diego, CA, USA) and the resulting bone marrow cells resuspended in fully supplemented Iscove’s modified Dulbecco’s medium (Gibco) plus 25 ng/mL M-CSF (from a 1 mg/mL M-CSF stock solution in PBS, M-CSF, ImmunoTools, Friesoythe, Germany). Five million cells were cultured on bacterial culture plates (Sigma-Aldrich, Germany) in a total volume of 10 mL. After 4 days, half of the medium was substituted by fresh medium to yield primary macrophages after an additional 4 days.
For M2-type polarization, BMDM medium was exchanged for fresh medium containing 20 ng/mL IL-4 and 20 ng/mL IL-13 (ImmunoTools, Germany), and cells were incubated for 24 h. […] IC50 concentrations were calculated as described above for the cytotoxicity assays.
(§4) Total RNA was extracted via phenol extraction from cells using RNA-Solv® reagent (VWR International GmbH, Hessen, Germany) as described in the manual of the manufacturer. RNA was purified with the Monarch® Total RNA Miniprep Kit (New England BioLabs GmbH, Frankfurt am Main, Germany) following the manual of the manufacturer. For RNA extraction from lung tissue, the accessory lobe of the right lung was mechanically homogenized in 1 mL RNA-Solv® reagent using the Tissue Lyser II (Qiagen, Venlo, The Netherlands). A 100 µL amount of the suspension was mixed with 900 µL RNA-Solv® reagent, and total RNA extraction was performed using the Monarch® Total RNA Miniprep Kit as described in the manual of the manufacturer.
(§5) RNA content of the extracted solution was measured optically using the Infinite® 200 PRO spectrofluorometer (TECAN, Switzerland), and 25 ng RNA per reaction was used in the following analysis.
(§6) Transcript levels of β-Actin were used to normalize data and to control for RNA integrity. Samples were amplified with the Luna® Universal One-Step RT-qPCR Kit (New England BioLabs GmbH, Frankfurt am Main) and analyzed using a Step One Plus sequence amplification system from LifeTechnologies (Darmstadt, Germany). For normalization, results were expressed as the ratio of the copy numbers of the target gene divided by the number of copies of the housekeeping gene (β-Actin) within individual PCR runs.

healthy C57BL/6 mice = assay: In vivo toxicity and dose finding; conditions: for maximum tolerated single dose without signs of acute toxicity: intraperitoneal, twice weekly, escalating doses, n = 2, weight loss and abnormal behavior
Protocol: Groups of 2 mice (C57BL/6) were challenged with increasing doses of MePip-SF5 or isogarcinol. Stock solutions of drugs (40 mM in DMSO, corresponding to 24 mg/mL for isogarcinol and 21 mg/mL for MePip-SF5) were freshly dissolved in PBS, yielding a total injection volume of 100 µL. Prepared drug solutions were intraperitoneally injected twice weekly (Monday and Friday) over 4 weeks. Drug doses were doubled each week, starting with 15 mg/kg body weight. Physical appearance and body weight were closely monitored. Toxic dose was defined as body weight loss of ≥10% in one week, abnormal behavior or when mice lost ≥5% of their body weight in two consecutive weeks.

[4] = test system: B16F10 pulmonary melanoma metastases; assay: In vivo antitumor therapy, pulmonary metastasis of B16F10 melanoma; parameters: species or system mice (C57BL/6); conditions: for pulmonary tumor load / antitumor effect: MePip-SF5 60 mg/kg, isogarcinol 15 mg/kg i.p. days 8, 11, 14, day 16, vs vehicle
Protocol: Eight-weeks-old female C57BL/6 mice (body weight ~20 g) were purchased from Charles River (Sulzfeld, Germany) and kept under 12 h light–dark cycles at 25 °C and 40–60% humidity with humane care. Mice had access to regular chow and water ad libitum. Pulmonary metastases were generated by tail vein injection. A total of 500,000 B16F10 cells were resuspended in sterile 100 µL PBS (cell viability > 90%) and injected into the tail vein of the mice while animals were immobilized in a mouse restrainer (G&P Kunststofftechnik, Kassel, Germany). At 8, 11 and 14 days after melanoma cell injection, groups of mice (n = 10) received an intraperitoneal injection of isogarcinol (15 mg/kg) or MePip-SF5 (60 mg/kg) of 200 µL, while non-treated control mice received equal volumes of PBS. At day 16, mice were sacrificed, and organs (lungs, liver, kidneys and spleen) and blood were sampled for further analysis. Tumor nodules of the left and right lobes of the lungs were macroscopically counted. Pictures of the lungs were taken with a Stemi 2000-C binocular (Carl Zeiss, Jena, Germany), and a mm scale was pictured to create a mm grid in ImageJ software (latest version 1.54f (National Institute of Health, Bethesda, MD, USA). In addition to surface lesion counts, tumors were categorized by their size into categories of <1 mm and <2 mm. Afterwards, both lobes were formalin fixed, paraffin embedded and sectioned (5 µm) to assess intrapulmonary tumor burden. Sections were stained with ready-to-use hematoxylin and eosin staining solution (Carl Roth, Karlsruhe, Germany) for 5 min at room temperature and washed in distilled water and 0.5% acetic acid. Per mouse, lungs were cut into 4–5 parts and then microtome thin-sectioned ([…]). Then, 4 lung sections were randomly selected and analyzed. Sections were tile-scanned with a Leica microscope (DMi8). Pictures were binarized and the percentage of healthy vs. tumor lung tissue measured by ImageJ software using an adjusted threshold setting. Data are expressed as means ± SD per mouse (n = 10 treated group; and n = 11 per control group).

C57BL/6 mice = assay: Safety laboratory and biometric parameters in treated metastasis-bearing mice; type: in vivo; conditions: for tolerability at the applied doses: MePip-SF5 60 mg/kg, isogarcinol 15 mg/kg i.p. ×3; for safety laboratory parameters (LDH, creatinine, urea, ALT, AST, GLDH, γ-GT, Bilirubin, ALP): serum, day 16
Protocol: (§7) At 8, 11 and 14 days after melanoma cell injection, groups of mice (n = 10) received an intraperitoneal injection of isogarcinol (15 mg/kg) or MePip-SF5 (60 mg/kg) of 200 µL, while non-treated control mice received equal volumes of PBS. At day 16, mice were sacrificed, and organs (lungs, liver, kidneys and spleen) and blood were sampled for further analysis.

[5] = test system: metastatic lung tissue transcripts; assay: RT-qPCR of transcripts in lung tissue of treated mice; type: in vivo, mice (C57BL/6); conditions: MePip-SF5 60 mg/kg, vs controls
Protocol: as §4, §5, §6, §7

[6] = test system: various solid tumor cell lines (including colon cancer and glioblastoma cells); conditions: exceeded the activities of previous curcuminoids; cited from earlier work
[7] = test system: gemcitabine-resistant pancreatic cancer patients; parameters: method as in PMID 20859741; conditions: cited from earlier work

C=C(C)[C@@H](CC=C(C)C)C[C@@]12C[C@@H](CC=C(C)C)C(C)(C)[C@@](CC=C(C)C)(C(=O)C(C(=O)c3ccc(O)c(O)c3)=C1O)C2=O [garcinol, reference compound]
IC50 [1]: 3.1 µM
IC50 (3T3 murine fibroblasts): 8.7 µM
IC50 (AML12 murine hepatocytes): 10.1 µM
IC50 [2]: 3.8 µM
Ccl3 expression [3]: not

CN1C/C(=C\c2ccc(S(F)(F)(F)(F)F)cc2)C(=O)/C(=C/c2ccc(S(F)(F)(F)(F)F)cc2)C1 [MePip-SF5, (E)-1-methyl-3,5-bis(4-pentafluorothiobenzylidene)-4-piperidone]
IC50 [1]: 2.8 µM
times more active than parent drug curcumin (3T3 murine fibroblasts; ratio of IC50): 10 ×
IC50 (3T3 murine fibroblasts): 0.7 µM
IC50 (AML12 murine hepatocytes): 2.3 µM
IC50 [2]: 1.3 µM
maximum tolerated single dose without signs of acute toxicity (healthy C57BL/6 mice): 60 mg/kg
could be dosed more highly than isogarcinol (healthy C57BL/6 mice; ratio of tolerated doses): 8 ×
proportion of healthy lung tissue (morphometric, thin sections) ([4]; 60 mg/kg i.p. days 8, 11, 14, vs PBS-treated controls): significantly higher
pulmonary tumor load / antitumor effect [4]: significantly (p < 0.05) lower; also recorded: robust antitumor effect
numbers of macroscopic tumor nodules of size ≤ 1 mm in the lungs ([4]; i.p. days 8, 11, 14, sacrifice day 16, vs controls and isogarcinol-treated mice): significantly (p < 0.05) lower
tolerability at the applied doses (C57BL/6 mice): well tolerated
safety laboratory parameters (LDH, creatinine, urea, ALT, AST, GLDH, γ-GT, Bilirubin, ALP) (C57BL/6 mice): remained normal
Bax expression in lungs [5]: remained unchanged
Bcl2 expression in lungs [5]: remained unchanged
Hif1a expression in lungs [5]: did not affect
Il6 expression in lungs [5]: did not affect
Ki67 expression in lungs [5]: trend of reduced expression
Bub1 expression in lungs ([5]; 60 mg/kg): significantly (p < 0.05) reduced; also recorded: significantly downregulated
Ccl3 expression in lungs ([5]; 60 mg/kg): significantly (p < 0.05) reduced
Tnfa expression in lungs ([5]; 60 mg/kg): significantly (p < 0.05) reduced
Inos expression [3]: no effect
Ccl2 expression ([3]; effective dose of 0.6 µM): increased
Ccl3 expression [3]: upregulated
antiproliferative activity [6]: high antiproliferative activity

COc1cc(/C=C/C(=O)CC(=O)/C=C/c2ccc(O)c(OC)c2)ccc1O [curcumin]
IC50 [1]: 13.8 µM
IC50 (3T3 murine fibroblasts): 6.8 µM
IC50 (AML12 murine hepatocytes): 10.8 µM
IC50 [2]: 5.5 µM
1-year survival rate ([7]; 95% confidence interval 4.4–41.4%): 19%
median survival ([7]; 95% confidence interval 109–223 days): 161 days

CC(C)=CC[C@H]1C[C@@]23C[C@@H](CC=C(C)C)C(C)(C)[C@@](CC=C(C)C)(C(=O)C(C(=O)c4ccc(O)c(O)c4)=C2OC1(C)C)C3=O [isogarcinol]
stronger activity than original substance garcinol [1]: 40% and ~ 40%
IC50 [1]: 2.1 µM
IC50 (3T3 murine fibroblasts): 3.2 µM
IC50 (AML12 murine hepatocytes): 4.3 µM
IC50 [2]: 2.3 µM
maximum tolerated single dose without signs of acute toxicity (healthy C57BL/6 mice): 15 mg/kg
pulmonary tumor load / antitumor effect [4]: ineffective; also recorded: failed to show activity
tolerability at the applied doses (C57BL/6 mice): well tolerated
safety laboratory parameters (LDH, creatinine, urea, ALT, AST, GLDH, γ-GT, Bilirubin, ALP) (C57BL/6 mice): remained normal
Ccl3 expression [3]: increased
